In PMC5766233, “Ternary copper(II) complex: NCI60 screening, toxicity studies, and evaluation of efficacy in xenograft models of nasopharyngeal carcinoma” (PLoS ONE, 2018):

Experiments:
CYP3A = experiment: Cytochrome P450 induction assay in rat primary hepatocytes, CYP3A; settings: for Fold induction CYP3A: 3 days; for % of positive control CYP3A: positive control dexamethasone 30 μM
Experimental: Assessment for potential drug-drug interaction is an important component of drug discovery and development. […] Most drug-drug interaction and drug metabolism occur in the hepatic cytochrome P450 (CYP) system. CYP is a superfamily of metabolizing enzymes located primarily in hepatocytes. Inhibition or induction of CYP enzymes is a mechanism for drug-drug interaction. In the current work, the inhibition and induction of CYP enzymes were investigated. CYP induction assay was performed using rat primary hepatocytes for CYP […] isoforms with dexamethasone (30 μM) and 3-methyl cholanthrene (1.0 μM) as […], respectively. Cytochrome CYP 3A enzymes are considered to be the most important enzymes catalyzing drug metabolism with broad substrate specificity while CYP 1A enzymes play key roles in the metabolic activation of aromatic hydrocarbons to carcinogenic metabolites. In orally administered anticancer drug, gut wall CYP 3A enzyme is considered important for drug-drug interactions and xenobiotic interactions.
5.0 x 10^5 viable rat hepatocytes were seeded into collagen-coated 24 well plate in 500 μL William’s medium E (Sigma Aldrich) per well and they were incubated at 37°C in a 5% CO2 humidified incubator. After an overnight incubation, the medium in each designated well was replaced with 500 μL of fresh medium containing the specified concentration of Cu(II) complex (1.0, 0.3 and 0.1 μM), dexamethasone (30 μM), 3-methyl cholanthrene (1.0 μM) as reference standards (positive controls) or fresh medium alone (vehicle control). The cells were treated for 3 consecutive days with daily replacement of fresh medium containing compounds. After incubation, the cells were washed with 1X HBSS and the medium was replaced with 300 μL of probe substrates (Midazolam at 10 μM and Phenacetin at 100 μM; prepared in HBSS). The cells were then incubated for a further 20 min at 37°C with mild shaking. The reaction was terminated by adding 600 μL of cold acetonitrile followed by scraping of cells. The above mixture in each well was transferred to a tube, and these tubes were centrifuged at 10,000 rpm for 10 min. The concentration/level of metabolites in the supernatant was monitored by LC-MS/MS.
The extent of fold induction as well as percent of positive control was calculated relative to basal control (untreated) by using the following formula.
%Activity=(averagearearatiooftreated/averagearearatioofbasalcontrol)x100
Foldinduction=%activity/100%ofpositivecontrol=foldinduction(Cu(II)treated)/foldinduction(referencestandardtreated)x100

[1] = Acute in vivo toxicity, single dose; design: species or system NOD scid gamma female mice
Experimental: Acute toxicity caused by the complex was tested on a method modified from the NCI single dose method. The experiment was performed to find the maximum tolerated dose (MTD) for the calculation of doses for repeat-dose animal testing; the experiment was designed to minimize both the use of compound tested and the number of animals to be sacrificed. […] Five doses, viz. 35.0, 17.5, 12.5, 7.5 and 5.5 mg/kg body weight of the Cu(II) complex, were injected intraperitoneally as single doses into each mouse respectively and the mice were observed daily for 14 days for drug-induced toxicity. The findings of the acute toxicity study are listed in S1 Table.
Determination of acute toxicity was carried out using a method adapted from the NCI [43]. Five mice were randomly separated into five cages. Five doses, i.e. 35.0, 17.5, 12.5, 7.5 and 5.5 mg/kg of body weight of Cu(II) complex were injected intraperitoneally as a single dose into each mouse respectively. After the drug administration, mice were observed hourly for any signs of toxicity, mortality, changes in general behavior and physical activities for the first 4 hours, then 4 hourly for 1 day followed by daily observation for 2 weeks. The signs which were monitored and recorded during this study included hypoactivity, lethargy, hypoapnoea, abnormal gait and posture, tremors, arching and rolling, convulsions, salivation and diarrhea. Mouse death during the period of observation was considered as death due to toxic effects of the test compound. The lethal dose and maximum tolerated dose (MTD) were determined during this study. At the end of the experiment, the survivors were sacrificed for necropsy. Gross and histopathological examinations were performed on the major internal organs including the heart, lung, liver, kidney and spleen.

[2] = Subacute toxicity, daily for 14 days; type: in vivo, NOD scid gamma female mice; settings: 4 and 6 mg/kg ip daily for 14 days
Experimental: For subacute toxicity study, three groups of three NSG female mice each were used. Using the formula from NCI, the low dose and high dose were calculated from the MTD value (17.5 mg/kg estimated above) and these were 4 and 6 mg/kg respectively. Mice in the first two groups were administered intraperitoneally with Cu(II) complex at doses of 4 and 6 mg/kg daily respectively for 14 days, while those in the control group received an equal volume of normal saline. […] No mortality was observed during the course of the study. All mice remained healthy with no obvious differences being noted in the general behavior, physical activities or clinical conditions with respect to the control group. The accumulative intraperitoneal doses administered in these groups were 56.0 and 84.0 mg/kg of the Cu(II) complex, respectively.
Mice were divided into three groups of 3 mice each. The Cu(II) complex was administered intraperitoneally at the doses of 4 and 6 mg/kg daily for 14 days, while the control group received an equal volume of normal saline. […] Signs of toxicity, mortality, body weight, food consumption and water intake were monitored and recorded daily. Adverse effects such as rapid or consistent body weight loss reaching 20%, blood stained discharges, labored breathing, paralysis, anemia, and other signs and symptoms mentioned in the acute toxicity study, was used as criteria for termination. At the end of the experiment, the mice were sacrificed and the major organs including the heart, lung, liver, kidney and spleen were examined for gross and histopathological changes.

With CC(C)(N)C(=O)[O-].O.O=[N+]([O-])[O-].[Cu+2].c1cnc2c(c1)ccc1cccnc12 [Cu(II) complex, [Cu(phen)(C-dmg)(H2O)]NO3] the “Fold induction CYP3A” value (CYP3A; 0.1 μM) was 1.3, the “% of positive control CYP3A” value (CYP3A; 0.1 μM) was 4.7% and the “Fold induction CYP3A” value (CYP3A; 0.3 μM) was 1.2. The “% of positive control CYP3A” value (CYP3A; 0.3 μM) was 4.3%, the “Fold induction CYP3A” value (CYP3A; 1.0 μM) was 0.8 and the Cell death observed (CYP3A; 1.0 μM, rat hepatocytes in the induction assay) was “** Cell death observed (approximately 30%)”. The “% of positive control CYP3A” value (CYP3A; 1.0 μM) was 3.0%, the “induction, % of positive control, CYP3A” value (CYP3A; 0.1-1.0 μM) was under 13% and the Mortality ([1]; 5.5 mg/kg single ip dose) was “No”. For the same molecule, the “Observation of mice behavioral and physical changes (after injection)” value ([1]; 5.5 mg/kg single ip dose) was “No clinical signs occurred. It showed normal behavior patterns when provoked”, the “Observation of mice behavioral and physical changes (later)” value ([1]; 5.5 mg/kg single ip dose) was “Normal behavior and activities” and the Mortality ([1]; 7.5 mg/kg single ip dose) was “No”. For the same molecule, the “Observation of mice behavioral and physical changes (after injection)” value ([1]; 7.5 mg/kg single ip dose) was “No abnormal clinical signs occurred. It showed normal behavior patterns when provoked”, the “Observation of mice behavioral and physical changes (later)” value ([1]; 7.5 mg/kg single ip dose) was “Normal behavior and activities” and the Mortality ([1]; 12.5 mg/kg single ip dose) was “No”. The “Observation of mice behavioral and physical changes (after injection)” value ([1]; 12.5 mg/kg single ip dose) was “After drug injection, mouse stayed at corner of its cage but resumed its normal behavior and physical activities after 45 min. Body movement happened. It showed normal behavior patterns when provoked”, the “Observation of mice behavioral and physical changes (later)” value ([1]; 12.5 mg/kg single ip dose) was “Normal behavior and activities” and the Mortality ([1]; 17.5 mg/kg single ip dose) was “No”. For the same molecule, the “Observation of mice behavioral and physical changes (after injection)” value ([1]; 17.5 mg/kg single ip dose) was “After drug injection, mouse stayed at corner of the cage but resumed its normal behavior and physical activities after 45 min. Body movement happened. It showed normal behavior patterns when provoked”, the “Observation of mice behavioral and physical changes (later)” value ([1]; 17.5 mg/kg single ip dose) was “Normal behavior and activities” and the “Histopathological examination, spleen” value ([1]; 35 mg/kg single ip dose) was “increased in multinucleated giant cells”. For the same molecule, the Mortality ([1]; 35.0 mg/kg single ip dose) was “Yes”, the “Observation of mice behavioral and physical changes (after injection)” value ([1]; 35.0 mg/kg single ip dose) was “Mouse was immobile and staying at one corner of the cage about 30 min after drug injection. After 0.5, 1, 2, 3 & 4 h, it was still immobile. Unresponsive to provocation” and the “Observation of mice behavioral and physical changes (later)” value ([1]; 35.0 mg/kg single ip dose) was “It was found dead on Day 2; blood stained urine noted”. The MTD ([1]; single dose treatment, intraperitoneal, estimated) was 17.5 mg/kg, the LD50 ([1]; single intraperitoneal dose, estimated) was 26.25 mg/kg and the “Histopathological examination, all organs examined” value ([1]; single ip doses other than 35 mg/kg) was “no significant morphological changes”. For the same molecule, the “Histopathological examination, all organs” value [2] was “no significant morphological changes”, the body weight [2] was “no significant reduction of body weight” and the Mortality ([2]; 14 days further observation) was “No mortality”. For the same molecule, the “weight of vital organs” value ([2]; day 28) was “not significantly affected” and the site of injections ([2]; disappeared during the 14-day observation) was “some inflammation and induration”.
